Reference: PMC3493702 (Cornea, 2013)

Assays:
[1] = in vitro; settings: rabbit, Ptot (apparent permeability coefficient) [corneal permeability]
[2] = corneal permeability, literature value; cited from earlier work

CC(CO)(CO)[N+](=O)[O-] [MNPD, 2-methyl-2-nitro-1,3-propanediol]
Papp at 120 min, 100 mM [1]: 4.37 ×10⁻⁶ cm/s

OC[C@@H](O)[C@@H](O)[C@H](O)[C@H](O)CO [mannitol]
Ptot [2]: 2.4 ×10⁻⁶ cm/s
